Measurements from patent US20120295907A1, “INSECTICIDAL COMPOUNDS” (SYNGENTA CROP PROTECTION, LLC, priority 2009, published 2012).

Experiments:
Format in all cases: in vivo
Myzus persicae = Myzus persicae (Green Peach Aphid) sunflower leaf disc spray test; conditions: foliar, 144 h, 200 ppm spray on sunflower leaf discs, aphid population of mixed ages, 6 DAT, mortality
Heliothis virescens = Heliothis virescens (Tobacco Budworm) egg test on artificial diet; conditions: 96 h, 200 ppm (concentration in well 18 ppm), eggs 0-24 h old on artificial diet, 4 days, egg mortality, larval mortality, growth regulation
Plutella xylostella = Plutella xylostella (Diamond Back Moth) artificial diet MTP test; conditions: 144 h, 200 ppm (concentration in well 18 ppm), L2 larvae, 6 days, larval mortality, growth regulation
Tetranychus urticae = Tetranychus urticae (Two-Spotted Spider Mite) bean leaf disc spray test; conditions: foliar, 192 h, 200 ppm spray on bean leaf discs, mite populations of mixed ages, 8 days, egg, larval and adult mortality, read-out: control of Tetranychus urticae
Spodoptera littoralis = Spodoptera littoralis (Egyptian Cotton Leafworm) cotton leaf disc spray test; conditions: foliar, 72 h, 200 ppm spray on cotton leaf discs, L1 larvae, mortality, feeding behavior, growth regulation 3 DAT
Thrips tabaci = Thrips tabaci (Onion Thrips) sunflower leaf disc spray test; conditions: foliar, 168 h, 200 ppm spray on sunflower leaf discs, population of mixed ages, 7 days, mortality
Diabrotica balteata = Diabrotica balteata (Corn Root Worm) artificial diet MTP test; conditions: 120 h, 200 ppm (concentration in well 18 ppm), L2 larvae, 5 days, larval mortality, growth regulation

Measured: pest or weed control at 200 ppm

COc1c(NC(=O)c2cc(C)nn2C)cccc1C(=O)Nc1c(Cl)cc(C(F)(C(F)(F)F)C(F)(F)C(F)(F)F)cc1Br (stereo not shown) [B42]
≥ 80%: all assays above

COc1c(NC(=O)c2ccncc2Cl)cccc1C(=O)Nc1c(Cl)cc(C(F)(C(F)(F)F)C(F)(F)C(F)(F)F)cc1Br (stereo not shown) [B66]
≥ 80%: all assays above

COc1c(NC(=O)c2ccc(F)cc2)cccc1C(=O)Nc1c(Cl)cc(C(F)(C(F)(F)F)C(F)(F)F)cc1Cl [E17]
≥ 80%: all assays above

COc1c(NC(=O)c2cc(F)cc(F)c2)cccc1C(=O)Nc1c(Cl)cc(C(F)(C(F)(F)F)C(F)(F)C(F)(F)F)cc1Br (stereo not shown) [B168]
≥ 80%: all assays above

COc1c(NC(=O)c2ccccc2C)cccc1C(=O)Nc1c(Cl)cc(C(F)(C(F)(F)F)C(F)(F)C(F)(F)F)cc1Br (stereo not shown) [B4]
≥ 80%: all assays above

COc1c(NC(=O)c2ccnc(C)c2Cl)cccc1C(=O)Nc1c(Cl)cc(C(F)(C(F)(F)F)C(F)(F)C(F)(F)F)cc1Br (stereo not shown) [B93]
≥ 80%: all assays above

COc1c(NC(=O)c2ccccc2Cl)cccc1C(=O)Nc1c(Cl)cc(C(F)(C(F)(F)F)C(F)(F)C(F)(F)F)cc1Cl (stereo not shown) [C5]
≥ 80%: all assays above

COc1c(NC(=O)c2ccc(SC)cc2)cccc1C(=O)Nc1c(Cl)cc(C(F)(C(F)(F)F)C(F)(F)C(F)(F)F)cc1Br (stereo not shown) [B26]
≥ 80%: all assays above

COc1c(NC(=O)c2ccc(Cl)cc2Cl)cccc1C(=O)Nc1c(Cl)cc(C(F)(C(F)(F)F)C(F)(F)C(F)(F)F)cc1Br (stereo not shown) [B155]
≥ 80%: all assays above

COc1c(NC(=O)c2ccc([N+](=O)[O-])cc2Cl)cccc1C(=O)Nc1c(Cl)cc(C(F)(C(F)(F)F)C(F)(F)F)cc1Cl [E9]
≥ 80%: all assays above

COc1c(NC(=O)c2ccc([N+](=O)[O-])c(N)c2)cccc1C(=O)Nc1c(Cl)cc(C(F)(C(F)(F)F)C(F)(F)C(F)(F)F)cc1Br (stereo not shown) [B174]
≥ 80%: all assays above

COc1c(NC(=O)c2ccccc2[N+](=O)[O-])cccc1C(=O)Nc1c(Cl)cc(C(F)(C(F)(F)F)C(F)(F)C(F)(F)F)cc1Br (stereo not shown) [B80]
≥ 80%: all assays above

COc1c(NC(=O)c2ccc(F)cc2Cl)cccc1C(=O)Nc1c(C)cc(C(F)(C(F)(F)F)C(F)(F)C(F)(F)F)cc1C (stereo not shown) [F30]
≥ 80%: all assays above

COc1c(NC(=O)c2ccnc(F)c2)cccc1C(=O)Nc1c(Cl)cc(C(F)(C(F)(F)F)C(F)(F)C(F)(F)F)cc1Br (stereo not shown) [B151]
≥ 80%: all assays above

CCc1cc(C(F)(C(F)(F)F)C(F)(F)C(F)(F)F)cc(C)c1NC(=O)c1cccc(NC(=O)c2ccc([N+](=O)[O-])cc2)c1OC (stereo not shown) [A18]
≥ 80%: all assays above

COc1c(NC(=O)c2ccc(C)cc2)cccc1C(=O)Nc1c(Cl)cc(C(F)(C(F)(F)F)C(F)(F)C(F)(F)F)cc1Cl (stereo not shown) [C8]
≥ 80%: all assays above

COc1c(NC(=O)c2ccc([N+](=O)[O-])cc2)cccc1C(=O)Nc1c(C)cc(C(F)(C(F)(F)F)C(F)(F)F)cc1C [K2]
≥ 80%: all assays above

CCc1cc(C(F)(C(F)(F)F)C(F)(F)C(F)(F)F)cc(C)c1NC(=O)c1cccc(NC(=O)c2ccc(Cl)nc2)c1OC (stereo not shown) [A17]
≥ 80%: all assays above

COc1c(NC(=O)c2ccncc2C)cccc1C(=O)Nc1c(Cl)cc(C(F)(C(F)(F)F)C(F)(F)C(F)(F)F)cc1Br (stereo not shown) [B82]
≥ 80%: all assays above
